Data: patent US20100004234A1, “SPECIFIC KINASE INHIBITORS” (Kosan Biosciences Incorporated, priority 2004, published 2010)

What was measured:
Assay in all cases: Kinase panel, residual activity
Type in all cases: biochemical
Conditions in all cases: read-out: Percent residual activity
[1] = target: Abl(h) (Homo sapiens, UniProt P00519)
Procedure: (§1) In this panel of 124 kinases, 18 of the 19 kinases identified as having an active site cysteine were inhibited to some extent by hypothemycin at a concentration of 0.2 μM and/or 2 μM.

[2] = target: Aurora-A(h) (Homo sapiens, UniProt O14965)
Procedure: as §1

[3] = target: BRK(h) (Homo sapiens, UniProt Q13882)
Procedure: as §1

[4] = target: CDK1/cyclinB(h) (Homo sapiens, UniProt P06493)
Procedure: as §1

[5] = target: CDK3/cyclinE(h) (Homo sapiens, UniProt Q00526)
Procedure: as §1

[6] = target: CDK7/cyclinH/MAT1(h) (Homo sapiens, UniProt P50613)
Procedure: as §1

[7] = target: CHK2(h) (Homo sapiens, UniProt O96017)
Procedure: as §1

[8] = target: CK1δ(h) (Homo sapiens, UniProt P48730)
Procedure: as §1

[9] = target: CK2(h) (Homo sapiens, UniProt P68400)
Procedure: as §1

[10] = target: EphB4(h) (Homo sapiens, UniProt P54760)
Procedure: as §1

[11] = target: FGFR1(h) (Homo sapiens, UniProt P11362)
Procedure: as §1

[12] = target: Fms(h) (Homo sapiens, UniProt P07333)
Procedure: as §1

[13] = target: GSK3β(h) (Homo sapiens, UniProt P49841)
Procedure: as §1

[14] = target: Hck(h) (Homo sapiens, UniProt P08631)
Procedure: as §1

[15] = target: IKKα(h) (Homo sapiens, UniProt O15111)
Procedure: as §1

[16] = target: IKKβ(h) (Homo sapiens, UniProt O14920)
Procedure: as §1

[17] = target: IRAK4(h) (Homo sapiens, UniProt Q9NWZ3)
Procedure: as §1

[18] = target: Lck(h) (Homo sapiens, UniProt P06239)
Procedure: as §1

[19] = target: MAPK1(h) (Homo sapiens, UniProt P27361)
Procedure: as §1

[20] = target: MSK1(h) (Homo sapiens, UniProt O75582)
Procedure: as §1

[21] = target: PDGFRα(h) (Homo sapiens, UniProt P16234)
Procedure: as §1

[22] = target: PKBα(h) (Homo sapiens, UniProt P31749)
Procedure: as §1

[23] = target: PKCδ(h) (Homo sapiens, UniProt Q05655)
Procedure: as §1

[24] = target: PKCε(h) (Homo sapiens, UniProt Q02156)
Procedure: as §1

[25] = target: PKCζ(h) (Homo sapiens, UniProt Q05513)
Procedure: as §1

[26] = target: PKCι(h) (Homo sapiens, UniProt P41743)
Procedure: as §1

[27] = target: Plk3(h) (Homo sapiens, UniProt Q9H4B4)
Procedure: as §1

[28] = target: Pyk2(h) (Homo sapiens, UniProt Q14289)
Procedure: as §1

[29] = target: RIPK2(h) (Homo sapiens, UniProt O43353)
Procedure: as §1

[30] = target: ROCK-II(h) (Homo sapiens, UniProt O75116)
Procedure: as §1

[31] = target: Rse(h) (Homo sapiens, UniProt Q06418)
Procedure: as §1

[32] = target: Rsk1(h) (Homo sapiens, UniProt Q15418)
Procedure: as §1

[33] = target: Rsk2(h) (Homo sapiens, UniProt P51812)
Procedure: as §1

[34] = target: SAPK4(h) (Homo sapiens, UniProt O15264)
Procedure: as §1

[35] = target: ZAP-70(h) (Homo sapiens, UniProt P43403)
Procedure: as §1

[36] = target: ZIPK(h) (Homo sapiens, UniProt O43293)
Procedure: as §1

[37] = target: cKit(D816V)(h) (Homo sapiens, UniProt P10721, D816V)
Procedure: as §1

Sequence of IKKβ(h) (O14920 whole entry): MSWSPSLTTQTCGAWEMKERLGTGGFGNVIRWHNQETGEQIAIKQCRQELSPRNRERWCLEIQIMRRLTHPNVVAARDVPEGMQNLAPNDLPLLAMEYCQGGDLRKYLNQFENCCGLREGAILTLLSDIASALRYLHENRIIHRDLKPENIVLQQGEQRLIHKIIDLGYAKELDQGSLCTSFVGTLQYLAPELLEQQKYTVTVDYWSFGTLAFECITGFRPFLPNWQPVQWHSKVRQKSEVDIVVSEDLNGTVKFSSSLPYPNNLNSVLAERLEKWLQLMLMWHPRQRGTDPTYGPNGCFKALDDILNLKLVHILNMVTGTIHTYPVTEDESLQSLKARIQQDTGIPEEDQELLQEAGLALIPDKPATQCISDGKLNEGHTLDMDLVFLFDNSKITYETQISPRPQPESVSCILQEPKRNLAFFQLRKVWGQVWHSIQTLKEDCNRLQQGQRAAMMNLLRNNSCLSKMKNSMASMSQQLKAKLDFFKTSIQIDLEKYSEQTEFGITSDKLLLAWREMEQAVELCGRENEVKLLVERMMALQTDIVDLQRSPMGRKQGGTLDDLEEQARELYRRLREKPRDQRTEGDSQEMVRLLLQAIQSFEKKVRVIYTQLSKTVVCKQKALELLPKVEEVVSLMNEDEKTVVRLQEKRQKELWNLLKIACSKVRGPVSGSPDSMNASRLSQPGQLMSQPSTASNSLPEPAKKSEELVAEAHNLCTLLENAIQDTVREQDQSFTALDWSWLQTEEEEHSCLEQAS
Sequence of cKit(D816V)(h) (P10721 26-976 D816V): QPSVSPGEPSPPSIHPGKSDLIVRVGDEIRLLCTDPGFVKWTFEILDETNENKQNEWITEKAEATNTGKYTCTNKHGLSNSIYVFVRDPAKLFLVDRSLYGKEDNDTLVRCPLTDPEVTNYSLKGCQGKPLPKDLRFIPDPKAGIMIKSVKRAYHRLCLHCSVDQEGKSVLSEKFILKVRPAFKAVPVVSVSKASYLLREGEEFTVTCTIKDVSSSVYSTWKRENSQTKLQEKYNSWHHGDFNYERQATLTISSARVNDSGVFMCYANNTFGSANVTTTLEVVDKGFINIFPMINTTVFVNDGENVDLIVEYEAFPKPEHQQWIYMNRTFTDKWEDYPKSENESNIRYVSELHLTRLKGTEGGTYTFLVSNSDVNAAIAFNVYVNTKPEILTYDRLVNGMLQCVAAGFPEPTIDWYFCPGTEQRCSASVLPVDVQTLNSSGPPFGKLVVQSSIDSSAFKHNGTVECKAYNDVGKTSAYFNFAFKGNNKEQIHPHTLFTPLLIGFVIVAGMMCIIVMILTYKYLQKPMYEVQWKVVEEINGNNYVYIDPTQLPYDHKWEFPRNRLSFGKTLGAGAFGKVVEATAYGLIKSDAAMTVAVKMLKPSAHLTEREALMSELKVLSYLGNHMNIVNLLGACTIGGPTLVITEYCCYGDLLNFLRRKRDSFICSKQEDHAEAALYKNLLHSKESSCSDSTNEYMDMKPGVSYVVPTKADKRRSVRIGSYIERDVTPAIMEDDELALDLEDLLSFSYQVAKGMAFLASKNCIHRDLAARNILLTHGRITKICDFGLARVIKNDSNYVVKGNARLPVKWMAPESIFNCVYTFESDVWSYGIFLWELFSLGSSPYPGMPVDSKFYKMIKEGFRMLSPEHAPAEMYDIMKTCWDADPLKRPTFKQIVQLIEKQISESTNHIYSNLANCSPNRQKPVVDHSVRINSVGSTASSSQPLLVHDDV
Sequence of GSK3β(h) (P49841 whole entry): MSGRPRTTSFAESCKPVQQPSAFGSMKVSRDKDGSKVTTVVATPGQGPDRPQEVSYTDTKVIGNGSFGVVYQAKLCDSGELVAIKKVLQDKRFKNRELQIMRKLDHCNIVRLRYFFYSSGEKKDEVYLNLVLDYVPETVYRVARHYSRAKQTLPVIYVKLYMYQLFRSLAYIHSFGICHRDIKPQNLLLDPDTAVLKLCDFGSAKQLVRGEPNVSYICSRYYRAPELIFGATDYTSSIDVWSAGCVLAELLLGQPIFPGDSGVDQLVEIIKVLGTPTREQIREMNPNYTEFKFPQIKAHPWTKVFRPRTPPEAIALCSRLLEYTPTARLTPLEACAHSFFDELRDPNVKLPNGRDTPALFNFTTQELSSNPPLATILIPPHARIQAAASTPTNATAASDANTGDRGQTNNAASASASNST
Sequence of Fms(h) (P07333 20-972): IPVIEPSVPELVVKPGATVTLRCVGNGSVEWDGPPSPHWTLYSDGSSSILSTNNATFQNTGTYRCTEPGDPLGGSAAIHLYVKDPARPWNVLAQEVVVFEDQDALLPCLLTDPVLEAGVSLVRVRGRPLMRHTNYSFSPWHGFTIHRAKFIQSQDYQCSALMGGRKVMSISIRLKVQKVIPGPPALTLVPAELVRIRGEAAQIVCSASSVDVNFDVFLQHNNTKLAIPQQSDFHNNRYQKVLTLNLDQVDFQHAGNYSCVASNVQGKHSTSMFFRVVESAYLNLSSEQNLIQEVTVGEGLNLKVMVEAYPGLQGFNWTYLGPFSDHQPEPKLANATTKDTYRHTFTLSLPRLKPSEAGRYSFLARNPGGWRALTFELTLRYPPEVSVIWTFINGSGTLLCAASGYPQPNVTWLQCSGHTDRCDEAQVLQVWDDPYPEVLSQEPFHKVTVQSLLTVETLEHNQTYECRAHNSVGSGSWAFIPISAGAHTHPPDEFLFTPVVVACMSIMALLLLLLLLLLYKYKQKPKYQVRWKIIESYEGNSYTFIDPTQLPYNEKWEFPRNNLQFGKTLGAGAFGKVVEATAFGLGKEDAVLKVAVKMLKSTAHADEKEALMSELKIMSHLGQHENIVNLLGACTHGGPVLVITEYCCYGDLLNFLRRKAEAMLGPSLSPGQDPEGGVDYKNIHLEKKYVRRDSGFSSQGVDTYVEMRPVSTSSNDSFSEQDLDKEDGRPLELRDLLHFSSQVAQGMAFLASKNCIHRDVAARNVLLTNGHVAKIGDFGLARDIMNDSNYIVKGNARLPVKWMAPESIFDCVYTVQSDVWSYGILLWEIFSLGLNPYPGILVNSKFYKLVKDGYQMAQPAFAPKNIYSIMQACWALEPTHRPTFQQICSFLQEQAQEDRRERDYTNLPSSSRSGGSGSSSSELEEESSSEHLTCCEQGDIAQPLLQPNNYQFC
Sequence of Aurora-A(h) (O14965 whole entry): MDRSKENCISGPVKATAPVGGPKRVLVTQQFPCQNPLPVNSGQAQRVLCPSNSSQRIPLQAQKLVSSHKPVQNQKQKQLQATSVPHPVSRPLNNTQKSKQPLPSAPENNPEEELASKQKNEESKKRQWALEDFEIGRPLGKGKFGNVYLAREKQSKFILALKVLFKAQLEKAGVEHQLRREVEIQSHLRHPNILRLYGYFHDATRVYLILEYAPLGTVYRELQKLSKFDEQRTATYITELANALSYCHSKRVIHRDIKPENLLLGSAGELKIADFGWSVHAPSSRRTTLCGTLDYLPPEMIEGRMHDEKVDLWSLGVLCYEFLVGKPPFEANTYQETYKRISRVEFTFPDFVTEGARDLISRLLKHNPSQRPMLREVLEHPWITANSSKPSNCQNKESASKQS
Sequence of PDGFRα(h) (P16234 24-1089): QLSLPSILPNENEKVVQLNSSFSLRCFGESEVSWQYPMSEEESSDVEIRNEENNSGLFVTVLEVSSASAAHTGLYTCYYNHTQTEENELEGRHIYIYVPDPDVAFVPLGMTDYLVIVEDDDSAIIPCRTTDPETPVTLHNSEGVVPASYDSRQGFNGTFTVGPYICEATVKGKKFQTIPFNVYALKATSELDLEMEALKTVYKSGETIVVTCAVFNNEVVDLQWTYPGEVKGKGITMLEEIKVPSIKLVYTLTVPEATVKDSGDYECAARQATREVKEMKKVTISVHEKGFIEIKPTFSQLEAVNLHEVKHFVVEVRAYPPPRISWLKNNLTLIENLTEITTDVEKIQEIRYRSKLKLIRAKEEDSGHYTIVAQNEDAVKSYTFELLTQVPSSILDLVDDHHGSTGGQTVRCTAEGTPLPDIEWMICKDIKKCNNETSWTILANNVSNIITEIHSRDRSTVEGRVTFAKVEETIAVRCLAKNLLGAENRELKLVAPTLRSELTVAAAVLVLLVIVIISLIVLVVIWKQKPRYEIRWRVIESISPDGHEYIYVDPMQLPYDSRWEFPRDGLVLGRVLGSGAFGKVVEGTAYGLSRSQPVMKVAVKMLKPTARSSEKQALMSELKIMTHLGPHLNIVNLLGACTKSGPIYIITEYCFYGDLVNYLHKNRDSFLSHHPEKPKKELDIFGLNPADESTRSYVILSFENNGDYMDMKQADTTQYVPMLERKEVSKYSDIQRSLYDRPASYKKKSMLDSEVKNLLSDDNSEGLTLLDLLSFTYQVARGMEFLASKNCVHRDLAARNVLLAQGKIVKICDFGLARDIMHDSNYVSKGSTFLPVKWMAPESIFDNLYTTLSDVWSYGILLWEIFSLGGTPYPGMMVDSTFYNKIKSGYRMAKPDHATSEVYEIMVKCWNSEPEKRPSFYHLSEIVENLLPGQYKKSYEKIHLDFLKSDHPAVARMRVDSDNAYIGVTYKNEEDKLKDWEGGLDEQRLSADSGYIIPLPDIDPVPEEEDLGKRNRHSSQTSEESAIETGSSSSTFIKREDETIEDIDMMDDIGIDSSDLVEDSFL
Sequence of Hck(h) (P08631 whole entry): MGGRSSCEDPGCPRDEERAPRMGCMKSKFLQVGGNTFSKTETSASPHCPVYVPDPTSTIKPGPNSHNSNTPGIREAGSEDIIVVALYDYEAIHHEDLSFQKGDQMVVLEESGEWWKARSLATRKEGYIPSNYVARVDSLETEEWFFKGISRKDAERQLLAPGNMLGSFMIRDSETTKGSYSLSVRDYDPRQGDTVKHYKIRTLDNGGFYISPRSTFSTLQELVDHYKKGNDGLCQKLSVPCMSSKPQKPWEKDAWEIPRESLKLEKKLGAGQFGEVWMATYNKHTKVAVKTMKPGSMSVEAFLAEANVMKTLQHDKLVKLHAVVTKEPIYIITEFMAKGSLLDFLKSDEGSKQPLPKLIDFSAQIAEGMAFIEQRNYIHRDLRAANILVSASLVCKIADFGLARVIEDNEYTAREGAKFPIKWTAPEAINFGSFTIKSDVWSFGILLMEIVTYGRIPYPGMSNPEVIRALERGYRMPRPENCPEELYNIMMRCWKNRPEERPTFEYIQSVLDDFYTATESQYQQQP

SMILES: COc1cc(O)c2c(c1)[C@H]1O[C@@H]1C[C@H](O)[C@H](O)C(=O)/C=C\C[C@H](C)OC2=O [Hypothemycin, hypothemycin]
- remaining activity at 0.2 µM [1]: 98%
- remaining activity at 0.2 µM ([2]; 0.2 μM): 87%
- remaining activity at 2 µM ([2]; 2.0 μM): 91%
- remaining activity at 0.2 µM [3]: 89%
- remaining activity at 0.2 µM [4]: 89%
- remaining activity at 0.2 µM [5]: 95%
- remaining activity at 0.2 µM [6]: 101%
- remaining activity at 0.2 µM [7]: 97%
- remaining activity at 0.2 µM [8]: 105%
- remaining activity at 0.2 µM [9]: 99%
- remaining activity at 0.2 µM [10]: 82%
- remaining activity at 0.2 µM [11]: 99%
- remaining activity at 0.2 µM ([12]; 0.2 μM): 91%
- remaining activity at 2 µM ([12]; 2.0 μM): 90%
- remaining activity at 0.2 µM ([13]; 0.2 μM): 90%
- remaining activity at 2 µM ([13]; 2.0 μM): 40%
- remaining activity at 0.2 µM ([14]; 0.2 μM): 78%
- remaining activity at 2 µM ([14]; 2.0 μM): 91%
- remaining activity at 0.2 µM [15]: 101%
- remaining activity at 0.2 µM ([16]; 0.2 μM): 81%
- remaining activity at 2 µM ([16]; 2.0 μM): 94%
- remaining activity at 0.2 µM [17]: 84%
- remaining activity at 0.2 µM [18]: 98%
- remaining activity at 0.2 µM ([19]; 0.2 μM): 79%
- remaining activity at 2 µM ([19]; 2.0 μM): 10%
- remaining activity at 0.2 µM [20]: 87%
- remaining activity at 0.2 µM ([21]; 0.2 μM): 77%
- remaining activity at 2 µM ([21]; 2.0 μM): 20%
- remaining activity at 0.2 µM [22]: 153%
- remaining activity at 0.2 µM [23]: 96%
- remaining activity at 0.2 µM [24]: 106%
- remaining activity at 0.2 µM [25]: 94%
- remaining activity at 0.2 µM [26]: 108%
- remaining activity at 0.2 µM [27]: 101%
- remaining activity at 0.2 µM [28]: 84%
- remaining activity at 0.2 µM [29]: 101%
- remaining activity at 0.2 µM [30]: 104%
- remaining activity at 0.2 µM [31]: 90%
- remaining activity at 0.2 µM [32]: 100%
- remaining activity at 0.2 µM [33]: 91%
- remaining activity at 0.2 µM [34]: 101%
- remaining activity at 0.2 µM [35]: 111%
- remaining activity at 0.2 µM [36]: 96%
- remaining activity at 0.2 µM ([37]; 0.2 μM): 57%
- remaining activity at 2 µM ([37]; 2.0 μM): 0%
